{"source": "paper PMC9516332", "about": "(Frontiers in Oncology, 2022)", "test_system": "134 cancer cell lines", "assay": "Cell viability assay (ATPlite, 72 hours), IC50 on cancer cell line panel", "note": "Like-named read-outs stand apart in the source and are kept apart here."}
{"smiles": "CCc1cc2c(cc1N1CCC(N3CCOCC3)CC1)C(C)(C)c1[nH]c3cc(C#N)ccc3c1C2=O", "note": "[alectinib]", "values": [{"measurement": "IC50", "setting": "Homo sapiens, LoVo, read-out: IC50 in cell proliferation assay", "result": "> 10", "unit": "µM"}, {"measurement": "IC50", "setting": "Homo sapiens, MCF7, read-out: IC50 in cell proliferation assay", "result": "> 10", "unit": "µM"}, {"measurement": "IC50", "setting": "Homo sapiens, MDA-MB-231, read-out: IC50 in cell proliferation assay", "result": "> 10", "unit": "µM"}, {"measurement": "IC50", "setting": "Homo sapiens, MDA-MB-453, read-out: IC50 in cell proliferation assay", "result": "> 10", "unit": "µM"}, {"measurement": "IC50", "setting": "Homo sapiens, MDA-MB-468, read-out: IC50 in cell proliferation assay", "result": "> 10", "unit": "µM"}, {"measurement": "IC50", "setting": "Homo sapiens, MG-63, read-out: IC50 in cell proliferation assay", "result": "> 10", "unit": "µM"}, {"measurement": "IC50", "setting": "Homo sapiens, MIA PaCa-2, read-out: IC50 in cell proliferation assay", "result": "> 10", "unit": "µM"}, {"measurement": "IC50", "setting": "Homo sapiens, MKN-45, read-out: IC50 in cell proliferation assay", "result": "> 10", "unit": "µM"}, {"measurement": "IC50", "setting": "Homo sapiens, MOLM-13, read-out: IC50 in cell proliferation assay", "result": 0.99, "unit": "µM"}, {"measurement": "IC50", "setting": "Homo sapiens, MOLT-4, read-out: IC50 in cell proliferation assay", "result": "> 10", "unit": "µM"}, {"measurement": "IC50", "setting": "Homo sapiens, MV4-11, read-out: IC50 in cell proliferation assay", "result": 1.07, "unit": "µM"}, {"measurement": "IC50", "setting": "Homo sapiens, MeWo, read-out: IC50 in cell proliferation assay", "result": "> 10", "unit": "µM"}, {"measurement": "IC50", "setting": "Homo sapiens, NCCIT, read-out: IC50 in cell proliferation assay", "result": "> 3.16", "unit": "µM"}, {"measurement": "IC50", "setting": "Homo sapiens, NCI-H82, read-out: IC50 in cell proliferation assay", "result": "> 10", "unit": "µM"}, {"measurement": "IC50", "setting": "Homo sapiens, NCI-H460, read-out: IC50 in cell proliferation assay", "result": "> 10", "unit": "µM"}, {"measurement": "IC50", "setting": "Homo sapiens, NCI-H661, read-out: IC50 in cell proliferation assay", "result": "> 10", "unit": "µM"}, {"measurement": "IC50", "setting": "Homo sapiens, NCI-H716, read-out: IC50 in cell proliferation assay", "result": 2.51, "unit": "µM"}, {"measurement": "IC50", "setting": "Homo sapiens, NCI-H1650, read-out: IC50 in cell proliferation assay", "result": 1.66, "unit": "µM"}, {"measurement": "IC50", "setting": "Homo sapiens, NCI-H1975, read-out: IC50 in cell proliferation assay", "result": 0.743, "unit": "µM"}, {"measurement": "IC50", "setting": "Homo sapiens, NCI-H2228, read-out: IC50 in cell proliferation assay", "result": 0.039, "unit": "µM"}, {"measurement": "IC50", "setting": "Homo sapiens, OVCAR-3, read-out: IC50 in cell proliferation assay", "result": "> 10", "unit": "µM"}, {"measurement": "IC50", "setting": "Homo sapiens, PFSK-1, read-out: IC50 in cell proliferation assay", "result": 3.48, "unit": "µM"}, {"measurement": "IC50", "setting": "Homo sapiens, RL95-2, read-out: IC50 in cell proliferation assay", "result": 1.33, "unit": "µM"}, {"measurement": "IC50", "setting": "Homo sapiens, RPMI-7951, read-out: IC50 in cell proliferation assay", "result": "> 10", "unit": "µM"}, {"measurement": "IC50", "setting": "Homo sapiens, RS4-11, read-out: IC50 in cell proliferation assay", "result": "> 10", "unit": "µM"}, {"measurement": "IC50", "setting": "Homo sapiens, Rec1, read-out: IC50 in cell proliferation assay", "result": 1.24, "unit": "µM"}, {"measurement": "IC50", "setting": "Homo sapiens, SHP77, read-out: IC50 in cell proliferation assay", "result": "> 10", "unit": "µM"}, {"measurement": "IC50", "setting": "Homo sapiens, SK-BR-3, read-out: IC50 in cell proliferation assay", "result": "> 10", "unit": "µM"}, {"measurement": "IC50", "setting": "Homo sapiens, SK-N-AS, read-out: IC50 in cell proliferation assay", "result": 7.73, "unit": "µM"}, {"measurement": "IC50", "setting": "Homo sapiens, SK-N-FI, read-out: IC50 in cell proliferation assay", "result": 7.44, "unit": "µM"}, {"measurement": "IC50", "setting": "Homo sapiens, SK-N-MC, read-out: IC50 in cell proliferation assay", "result": "> 10", "unit": "µM"}, {"measurement": "IC50", "setting": "Homo sapiens, SK-N-SH, read-out: IC50 in cell proliferation assay", "result": 2.43, "unit": "µM"}, {"measurement": "IC50", "setting": "Homo sapiens, SNU-5, read-out: IC50 in cell proliferation assay", "result": "> 10", "unit": "µM"}, {"measurement": "IC50", "setting": "Homo sapiens, SNU-16, read-out: IC50 in cell proliferation assay", "result": "> 10", "unit": "µM"}, {"measurement": "IC50", "setting": "Homo sapiens, SNU-C2B, read-out: IC50 in cell proliferation assay", "result": "> 10", "unit": "µM"}, {"measurement": "IC50", "setting": "Homo sapiens, SU-DHL-1, read-out: IC50 in cell proliferation assay", "result": 0.432, "unit": "µM"}, {"measurement": "IC50", "setting": "Homo sapiens, SU-DHL-6, read-out: IC50 in cell proliferation assay", "result": "> 10", "unit": "µM"}, {"measurement": "IC50", "setting": "Homo sapiens, SUP-T1, read-out: IC50 in cell proliferation assay", "result": "> 10", "unit": "µM"}, {"measurement": "IC50", "setting": "Homo sapiens, SW48, read-out: IC50 in cell proliferation assay", "result": "> 10", "unit": "µM"}, {"measurement": "IC50", "setting": "Homo sapiens, SW480, read-out: IC50 in cell proliferation assay", "result": "> 10", "unit": "µM"}, {"measurement": "IC50", "setting": "Homo sapiens, SW626, read-out: IC50 in cell proliferation assay", "result": "> 10", "unit": "µM"}, {"measurement": "IC50", "setting": "Homo sapiens, SW780, read-out: IC50 in cell proliferation assay", "result": 1.67, "unit": "µM"}, {"measurement": "IC50", "setting": "Homo sapiens, SW837, read-out: IC50 in cell proliferation assay", "result": "> 10", "unit": "µM"}, {"measurement": "IC50", "setting": "Homo sapiens, SW872, read-out: IC50 in cell proliferation assay", "result": "> 10", "unit": "µM"}, {"measurement": "IC50", "setting": "Homo sapiens, SW900, read-out: IC50 in cell proliferation assay", "result": "> 10", "unit": "µM"}, {"measurement": "IC50", "setting": "Homo sapiens, SW948, read-out: IC50 in cell proliferation assay", "result": "> 10", "unit": "µM"}, {"measurement": "IC50", "setting": "Homo sapiens, SW982, read-out: IC50 in cell proliferation assay", "result": "> 10", "unit": "µM"}, {"measurement": "IC50", "setting": "Homo sapiens, SW-620, read-out: IC50 in cell proliferation assay", "result": "> 10", "unit": "µM"}, {"measurement": "IC50", "setting": "Homo sapiens, T98G, read-out: IC50 in cell proliferation assay", "result": "> 10", "unit": "µM"}, {"measurement": "IC50", "setting": "Homo sapiens, TCC-SUP, read-out: IC50 in cell proliferation assay", "result": 3.7, "unit": "µM"}, {"measurement": "IC50", "setting": "Homo sapiens, THP-1, read-out: IC50 in cell proliferation assay", "result": "> 10", "unit": "µM"}, {"measurement": "IC50", "setting": "Homo sapiens, U2OS, read-out: IC50 in cell proliferation assay", "result": 3.79, "unit": "µM"}, {"measurement": "IC50", "setting": "Homo sapiens, U-87 MG, read-out: IC50 in cell proliferation assay", "result": 3.1, "unit": "µM"}, {"measurement": "IC50", "setting": "Homo sapiens, U-118-MG, read-out: IC50 in cell proliferation assay", "result": 3.33, "unit": "µM"}, {"measurement": "IC50", "setting": "Homo sapiens, UMUC3, read-out: IC50 in cell proliferation assay", "result": 3.3, "unit": "µM"}, {"measurement": "IC50", "setting": "Hs766T, read-out: IC50 in cell proliferation assay", "result": "> 10", "unit": "µM"}, {"measurement": "IC50", "setting": "L-82, read-out: IC50 in cell proliferation assay", "result": 0.037, "unit": "µM"}, {"measurement": "IC50", "setting": "Rh30, read-out: IC50 in cell proliferation assay", "result": "> 10", "unit": "µM"}]}
